The text below walks through data of patent US20230025880A1, “FUSED TRICYCLIC COMPOUND AND MEDICINAL USE THEREOF” (JAPAN TOBACCO INC., priority 2020, published 2023).

For the test, the target named is T1, human PDHK2 (hPDHK2) (Homo sapiens, UniProt Q15119).
T1 construct: made in house; host or cells: Escherichia coli BL21(DE3), pET-17b vector
As to the kind of experiment: Inhibitory action of PDHK2 activity (residual PDH activity, NADH absorbance at 340 nm). The test is classed as biochemical. The settings on record: for IC50: PDH/hPDHK2 complex, PDHK reaction 45 min at room temperature; for inhibition at 0.1 µM: given when IC50 value could not be calculated, read-out: hPDHK2 inhibitory rate. Here is the method: In the case of human PDHK2 (hPDHK2, NCBI Reference Database Accession number NM_002611.4), modified hPDHK2 cDNA wherein FLAG-Tag sequence was added to the N terminus of hPDHK2 cDNA clone (pReceiver-M01/PDK2-GeneCopoeia) as the base was prepared by polymerase chain reaction (PCR) and ligated to the NdeI/EcoRI site of pET-17b vector (Merck KGaA, Catalog Number 69663-3). The recombinant construct was transformed into Escherichia coli DH5α. The recombinant clones were identified, and plasmid DNA was isolated and subjected to the DNA sequence analysis. One clone which had the expected nucleic acid sequence was selected for expression work.
For expression of hPDHK2 activity, Escherichia coli strain BL21(DE3) cells (Merck KGaA, Catalog Number 69450-4) were transformed with the pET17b vector containing modified hPDHK2 cDNA. The Escherichia coli were grown to an optical density 0.6 ([…]) at 30° C. Protein expression was induced by the addition of 500 μmol/L isopropyl-β-thiogalactopyranoside. The Escherichia coli were cultured at 20° C. for 17-18 hr and harvested by centrifugation. The harvested Escherichia coli was resuspended in a suspension buffer (20 mmol/L HEPES-NaOH, 500 mmol/L sodium chloride, 1% ethylene glycol, 0.1% Pluronic (registered trademark) F-68 (pH 8.0), cOmplete, EDTA-free (Roche) (pH 8.0)), and disrupted by a microfluidizer M-110H (MIZUHO INDUSTRIAL CO., LTD.). The precipitate was removed by centrifugation and the supernatant was added to DDDDK-tagged Protein PURIFICATION GEL (MEDICAL & BIOLOGICAL LABORATORIES CO., LTD., Code No. 3329). DDDDK-tagged Protein PURIFICATION GEL was washed with a washing buffer (20 mmol/L HEPES-NaOH, 500 mmol/L sodium chloride, 1% ethylene glycol, 0.1% Pluronic F-68 (pH 8.0)) and the bound protein was eluted with elution buffer 1 (20 mmol/L HEPES-NaOH, 100 μg/mL peptide (amino acid sequence DYKDDDDK) (SEQ ID NO: 1), 500 mmol/L sodium chloride, 1% ethylene glycol, 0.1% Pluronic F-68 (pH 8.0)). The eluted fractions containing FLAG-Tagged protein were pooled, concentrated by an ultrafiltration method, added to a gel filtration column (HiLoad 26/60 Superdex 200 (GE Healthcare Life Sciences, Code No. 17-1070-01)), and eluted with elution buffer 2 (20 mmol/L HEPES-NaOH, 150 mmol/L sodium chloride, 0.5 mmol/L ethylenediaminetetraacetic acid (EDTA), 1% ethylene glycol, 0.1% Pluronic F-68 (pH 8.0)). The eluted fractions were pooled and preserved at −80° C.
PDH (porcine heart PDH complex, Sigma P7032) and 0.5 μg/mL hPDHK2 were mixed in an assay buffer (50 mmol/L 3-morpholinopropanesulfonic acid (pH 7.0), 20 mmol/L dipotassium hydrogen phosphate, 60 mmol/L potassium chloride, 2 mmol/L magnesium chloride, 0.4 mmol/L EDTA, 0.2% poloxamer, 2 mmol/L dithiothreitol) so that the final concentration of PDH was 0.025 U/mL, and the mixture was incubated at 4° C. overnight to obtain a PDH/hPDHK2 complex solution.
PDH was mixed with the assay buffer so that the final concentration was 0.025 U/mL, and the mixture was incubated at 4° C. overnight to prepare a PDH solution.
The test compounds were diluted with DMSO. To measure an inhibitory action of the test compound on the PDHK activity in the PDH/hPDHK2 complex solution, PDH/hPDHK2 complex solution (20 μL), test compound (1.5 μL) and 1.06 μmol/L ATP (diluted with assay buffer) (8.5 μL) were added to a 384 well microplate (Greiner Bio-One 781801) and PDHK reaction was performed at room temperature for 45 min (test compound well). DMSO (1.5 μL) was added to control wells instead of test compound. In addition, DMSO (1.5 μL) was added to blank wells instead of the test compound, and PDH solution was added instead of the PDH/hPDHK2 complex solution. To measure an inhibitory action of the test compound on the PDHK activity inherent in the PDH solution, a test compound was added and the PDH solution instead of the PDH/hPDHK2 complex solution was added to a blank+test compound well. […]

`C[C@H]1Cn2nc(C(C)(O)C(F)(F)F)cc2-c2cnc([C@@](C)(O)C(F)(F)F)n21` (mixture of isomers) [Example 26] displayed an IC50 of 31 nM.

Consider `C[C@H]1Cc2ccccc2-c2cnc([C@@](C)(O)C(F)(F)F)n21` (racemic) [Example 1, 1,1,1-trifluoro-2-(5-methyl-5,6-dihydroimidazo[5,1-a]isoquinolin-3-yl)propan-2-ol], for which the IC50 was 16 nM.

Turning to `C[C@H]1Cc2c(C(F)(F)F)noc2-c2cnc([C@@](C)(O)C(F)(F)F)n21` (racemic) [Example 3], inhibition was half-maximal at 17 nM (IC50).

Regarding `C[C@H]1Cc2cc(C#N)ccc2-c2cnc([C@@](C)(O)C(F)(F)F)n21` (racemic) [Example 5], the IC50 worked out at 21 nM.

For `C[C@H]1Cc2cnc(C(F)(F)F)nc2-c2cnc([C@@](C)(O)C(F)(F)F)n21` (racemic) [Example 6, 1,1,1-trifluoro-2-(6-methyl-2-(trifluoromethyl)-5,6-dihydroimidazo[1′,5′:1,2]pyrido[3,4-d]pyrimidin-8-yl)propan-2-ol], the IC50 was determined as 220 nM.

In the case of `C[C@H]1Cc2c(C(F)(F)F)nn(C)c2-c2cnc([C@@](C)(O)C(F)(F)F)n21` (racemic) [Example 24, 2-(1,5-dimethyl-3-(trifluoromethyl)-4,5-dihydro-1H-imidazo[1,5-a]pyrazolo[3,4-c]pyridin-7-yl)-1,1,1-trifluoropropan-2-ol], the IC50 was > 100 nM and the inhibition at 0.1 µM is 31%.

Regarding `C[C@H]1Cc2c(C(C)(C)O)noc2-c2cnc([C@@](C)(O)C(F)(F)F)n21` (racemic) [Example 25], the IC50 turned out to be 18 nM.

In turn, `C[C@H]1Cc2c(C3CC3)noc2-c2cnc([C@@](C)(O)C(F)(F)F)n21` (racemic) [Example 34, 2-(3-cyclopropyl-5-methyl-4,5-dihydroimidazo[1,5-a]isoxazolo[5,4-c]pyridin-7-yl)-1,1,1-trifluoropropan-2-ol] came in with an IC50 of 21 nM.

`C[C@H]1Cc2c(noc2C2CC2)-c2cnc([C@@](C)(O)C(F)(F)F)n21` (racemic) [Example 35, 2-(3-cyclopropyl-5-methyl-4,5-dihydroimidazo[1,5-a]isoxazolo[3,4-c]pyridin-7-yl)-1,1,1-trifluoropropan-2-ol] had an IC50 of 19 nM.

`C[C@H]1Cc2c(C(F)(F)F)n[nH]c2-c2cnc([C@@](C)(O)C(F)(F)F)n21` (racemic) [Example 50, 1,1,1-trifluoro-2-(5-methyl-3-(trifluoromethyl)-4,5-dihydro-1H-imidazo[1,5-a]pyrazolo[3,4-c]pyridin-7-yl)propan-2-ol] gave an IC50 of 27 nM.

Regarding `C[C@H]1Cn2c(nnc2C(F)(F)F)-c2cnc([C@@](C)(O)C(F)(F)F)n21` [Example 2, (R)-1,1,1-trifluoro-2-((S)-6-methyl-3-(trifluoromethyl)-5,6-dihydroimidazo[1,5-a] [1,2,4]triazolo[3,4-c]pyrazin-8-yl)propan-2-ol], the IC50 amounted to 26 nM.

In turn, `C[C@H]1Cn2nc(C(F)(F)F)cc2-c2cnc([C@@](C)(O)C(F)(F)F)n21` [Example 4] displayed an IC50 of 14 nM.

Turning to `C[C@H]1Cn2c(cnc2C(F)(F)F)-c2cnc([C@@](C)(O)C(F)(F)F)n21` [Example 7], the IC50 stood at 7.5 nM.

Regarding `C[C@H]1Cn2nccc2-c2cnc([C@@](C)(O)C(F)(F)F)n21` [Example 8], the IC50 stood at 7.7 nM.

Turning to `Cc1cc2n(n1)C[C@H](C)n1c-2cnc1[C@@](C)(O)C(F)(F)F` [Example 9], half-maximal inhibition (IC50) was put at 13 nM.

Turning to `C[C@H]1Cn2nc(C3CC3)cc2-c2cnc([C@@](C)(O)C(F)(F)F)n21` [Example 10], the 50% inhibitory concentration (IC50) came out at 13 nM.

`C[C@H]1Cn2ncc(Cl)c2-c2cnc([C@@](C)(O)C(F)(F)F)n21` [Example 11]: the IC50 was found to be 34 nM.

Turning to `CC[C@H]1Cn2nc(C(F)(F)F)cc2-c2cnc([C@@](C)(O)C(F)(F)F)n21` [Example 12], the IC50 is > 100 nM and the inhibition at 0.1 µM is 35%.

`C[C@H]1Cn2nc(C(F)(F)F)cc2-c2nnc([C@@](C)(O)C(F)(F)F)n21` [Example 13, (R)-1,1,1-trifluoro-2-((S)-5-methyl-9-(trifluoromethyl)-5,6-dihydropyrazolo[1,5-a] [1,2,4]triazolo[3,4-c]pyrazin-3-yl)propan-2-ol]: the IC50 was determined as 13 nM.

In the case of `C[C@H]1Cn2c(nnc2C2CC2)-c2cnc([C@@](C)(O)C(F)(F)F)n21` [Example 14], half-maximal inhibition (IC50) was put at 6.3 nM.

`C[C@H]1Cn2nc(C(C)(C)C)cc2-c2cnc([C@@](C)(O)C(F)(F)F)n21` [Example 15] showed a half-maximal inhibitory concentration (IC50) of 14 nM.

The compound `Cc1nnc2n1C[C@H](C)n1c-2cnc1[C@@](C)(O)C(F)(F)F` [Example 16] registered an IC50 of 12 nM.

Turning to `C[C@H]1Cn2c(nnc2C2(C)CC2)-c2cnc([C@@](C)(O)C(F)(F)F)n21` [Example 17], the IC50 is 7.3 nM.

Take `C[C@H]1Cn2c(C(F)(F)F)cnc2-c2cnc([C@@](C)(O)C(F)(F)F)n21` [Example 18]: the IC50 was found to be 6.5 nM.

Compound `C[C@H]1Cn2cc(C(F)(F)F)nc2-c2cnc([C@@](C)(O)C(F)(F)F)n21` [Example 19] yielded an IC50 of 11 nM.

With `C[C@H]1Cn2nc(C(C)(C)O)cc2-c2cnc([C@@](C)(O)C(F)(F)F)n21` [Example 20], the IC50 was determined as 22 nM.

`C[C@H]1Cn2c(-c3ccc(F)cc3)nnc2-c2cnc([C@@](C)(O)C(F)(F)F)n21` [Example 21]: inhibition was half-maximal at 6.3 nM (IC50).

As for `C[C@H]1Cn2nc(C(=O)N(C)C)cc2-c2cnc([C@@](C)(O)C(F)(F)F)n21` [Example 22], the IC50 was found to be 12 nM.

On to `C[C@H]1Cn2nc(OC(F)F)cc2-c2cnc([C@@](C)(O)C(F)(F)F)n21` [Example 23, (R)-2-((S)-9-(difluoromethoxy)-5-methyl-5,6-dihydroimidazo[1,5-a]pyrazolo[5,1-c]pyrazin-3-yl)-1,1,1-trifluoropropan-2-ol], for which the IC50 came out at 13 nM.

In turn, `C[C@H]1Cn2nc(OCc3ccccc3)cc2-c2cnc([C@@](C)(O)C(F)(F)F)n21` [Example 27] returned an IC50 of 11 nM.

`C[C@H]1Cn2nc(O)cc2-c2cnc([C@@](C)(O)C(F)(F)F)n21` [Example 28] came in with an IC50 of 22 nM.

As for `C[C@H]1Cn2nc(C(F)F)cc2-c2cnc([C@@](C)(O)C(F)(F)F)n21` [Example 29], the IC50 is 38 nM.

In turn, `C[C@H]1Cn2nc(OCCC(C)(C)O)cc2-c2cnc([C@@](C)(O)C(F)(F)F)n21` [Example 30] came in with a concentration for half-maximal inhibition (IC50) of 12 nM.

Compound `Cc1cnn2c1-c1cnc([C@@](C)(O)C(F)(F)F)n1[C@@H](C)C2` [Example 31] gave an IC50 of 81 nM.

As to `COc1ccc(COCc2cc3n(n2)C[C@H](C)n2c-3cnc2[C@@](C)(O)C(F)(F)F)cc1` [Example 33], inhibition was half-maximal at 29 nM (IC50).

For `C[C@H]1Cn2nc(CO)cc2-c2cnc([C@@](C)(O)C(F)(F)F)n21` [Example 36], the IC50 was 19 nM.

On to `C[C@H]1Cn2nc(C=O)cc2-c2cnc([C@@](C)(O)C(F)(F)F)n21` [Example 37], for which half-maximal inhibition (IC50) was put at 21 nM.

`C[C@H]1Cn2nc(C(=O)N3CC(F)(F)C3)cc2-c2cnc([C@@](C)(O)C(F)(F)F)n21` [Example 38] gave an IC50 of 14 nM.

As usually defined, the IC50 is the midpoint of a concentration-inhibition curve.
